PubChem BioAssay (NCI)
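Method: 48-hour compound exposure of cells in 96-well plates, five concentrations, linear interpolation of endpoints. Abbreviation: GI50, concentration required for 50% inhibition of growth. TGI is the concentration that stops growth completely.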

Key:
Experiment in all cases: NCI tumour cell line growth inhibition, 48 h
[1] = system: CCRF-CEM leukemia
[2] = system: IGROV1 ovarian
[3] = system: NCI-H522 lung
[4] = system: RXF 393 renal
[5] = system: SF-268 CNS
[6] = system: SK-MEL-2 melanoma
[7] = system: SK-MEL-5 melanoma
[8] = system: SW-620 colon
[9] = system: UACC-62 melanoma
[10] = system: UO-31 renal

| SMILES | TGI [1] [µM] | TGI [2] [µM] | TGI [3] [µM] | TGI [4] [µM] | TGI [5] [µM] | TGI [6] [µM] | TGI [7] [µM] | TGI [8] [µM] | TGI [9] [µM] | TGI [10] [µM] | GI50 [1] [µM] | GI50 [2] [µM] | GI50 [3] [µM] | GI50 [4] [µM] | GI50 [5] [µM] | GI50 [6] [µM] | GI50 [7] [µM] | GI50 [8] [µM] | GI50 [9] [µM] | GI50 [10] [µM] |
| --- | --- | --- | --- | --- | --- | --- | --- | --- | --- | --- | --- | --- | --- | --- | --- | --- | --- | --- | --- | --- |
| Oc1ccc(C(=C(Br)c2ccccc2)c2ccc(O)cc2)cc1 | 32.3 | 19.9 | 17.6 | 27.2 | 16.5 | 18.3 | 12.5 | 14.9 | 23.1 | 19.7 | – | – | – | – | – | – | – | – | – | – |
| O=C1c2cc3c(cc2-c2c1c1ccc(Cl)cc1c(=O)n2C[C@H](O)CO)OCO3 | 24.2 | > 100 | 1.82 | 0.126 | 1.04 | 1.11 | 0.114 | 1.02 | 0.122 | 0.19 | < 0.01 | 0.135 | 0.0422 | 0.0275 | 0.0185 | 0.284 | 0.0322 | 0.02 | 0.0122 | 0.0348 |
| COC(=O)c1cc2c(cc1Cl)Sc1nnc(Nc3ccccc3)n1S2(=O)=O | 6.13 | 2.68 | 3.26 | 5.96 | 5.48 | 8.79 | 21.2 | 11.1 | 14.6 | 7.56 | – | – | – | – | – | – | – | – | – | – |
| C=C(C#N)C(=O)OCC(CC)CC.C=C(C#N)C(=O)OCC(CC)CC.CS(C)=O.CS(C)=O.Nc1c(N=Nc2ccc(-c3ccc(N=Nc4cc(S(=O)(=O)[O-])c5ccccc5c4N)cc3)cc2)cc(S(=O)(=O)[O-])c2ccccc12.[Pt+2] | > 100 | > 100 | 19.3 | 51.1 | 59.1 | 50.4 | > 77.4 | 46.2 | 97.4 | > 100 | 30.7 | 29.4 | 13.7 | 19.5 | 24.9 | 21.2 | 34.1 | 25 | 36.8 | > 100 |
| O=C1c2cc(O)c(O)cc2O[C@H](c2ccc(O)c(O)c2)[C@H]1O | > 100 | > 100 | > 100 | – | > 100 | > 100 | > 100 | > 100 | > 100 | > 100 | – | – | – | – | – | – | – | – | – | – |
| Cc1ccc(S(=O)(=O)N(CC(O)COc2ccccc2)c2c(F)cccc2F)cc1 (stereo unspecified) | 95.8 | – | – | 26.1 | 37.4 | 32.5 | 27.2 | 67.7 | 36.3 | 38.7 | – | – | – | – | – | – | – | – | – | – |
| CCN(CC)CCNc1ccc2ncn3c4ccc(O)cc4c(=O)c1c23 | 16.5 | 14.3 | 15.7 | 1.96 | 13.6 | 21.4 | 10.4 | 8.84 | 11.8 | 6.94 | – | – | – | – | – | – | – | – | – | – |
| COc1ccc2nc3c(c(N)c2c1)C1CCC3C1(C)C (stereo unspecified) | 98.4 | > 100 | > 100 | 81.5 | > 100 | 67.1 | 25.7 | > 100 | 58 | > 100 | – | – | – | – | – | – | – | – | – | – |
| CSCCC(C(=O)O)N(C)C (stereo unspecified) | > 100 | > 100 | > 100 | > 100 | > 100 | > 100 | > 100 | > 100 | > 100 | > 100 | – | – | – | – | – | – | – | – | – | – |
| O=c1[nH]c2[nH]c(=S)[nH]c(=S)c2[nH]1 | – | > 100 | > 100 | > 100 | > 100 | > 100 | > 100 | > 100 | > 100 | > 100 | – | – | – | – | – | – | – | – | – | – |
| CN1C(=O)CC(=O)N1/C(=C/c1ccccc1)c1ccccc1 | 54.3 | 42.2 | – | 54.1 | > 100 | > 100 | > 100 | > 100 | > 100 | 32 | – | – | – | – | – | – | – | – | – | – |
| O=C(CSCC(=O)N/N=C/c1cccc(O)c1)N/N=C/c1cccc(O)c1 | – | > 100 | > 100 | > 100 | > 100 | > 100 | > 100 | > 100 | > 100 | > 100 | – | – | – | – | – | – | – | – | – | – |
| Cc1ccc(S(=O)(=O)OC2CC(C(C)(C)C)CCC2c2ccccc2)cc1 (stereo unspecified) | – | > 100 | – | > 100 | – | > 100 | > 100 | > 100 | > 100 | > 100 | – | – | – | – | – | – | – | – | – | – |
| COc1ccc2nc3cc(Cl)ccc3c(NC(C)CCCN(CCCl)CCCl)c2c1 (stereo unspecified) | 1.12 | 7.11 | 2.24 | 4.9 | 4.28 | 4.54 | 7.89 | 2.07 | 2.41 | 11 | – | – | – | – | – | – | – | – | – | – |
| COc1ccc(OC)c2sc(N3C(=O)/C(=C/c4cccc(Oc5ccccc5)c4)N=C3c3ccccc3)nc12 | > 100 | > 100 | > 100 | > 100 | > 100 | > 100 | > 100 | > 100 | > 100 | > 100 | – | – | – | – | – | – | – | – | – | – |
